The compounds below were run on Plasmodium falciparum (assay: MMV: Compounds (1uM) were screened in a 72hr growth assay monitored by flow cytometry both in the presence and absence of supplemental isopentenyl pyrophosphate (IPP) 200uM. Compounds which fail to show anti-malarial activity when chemically rescued by IPP are therefore specific to the apicoplast. The values are expressed as the ratio of the corresponding activity with and without IPP, respectively.).
Format: functional, W2
`CCOc1cc(CNC(C)C(O)c2ccccc2)cc(Cl)c1OCC` (stereo not drawn) was tested, and the Ratio was 0.8833. In the case of `Cc1cc(NC(=O)c2cccc(C(F)(F)F)c2)n(-c2nc(-c3ccc4c(c3)OCO4)cs2)n1`, the Ratio is reported as 0.8908. `COc1cccc(C2(C)Nc3ccccc3-c3nc4ccccc4n32)c1` (stereo not drawn) gave a Ratio of 1.163. With `CC(C)CNC(=O)c1c(N)n(CCc2ccccc2F)c2nc3ccccc3nc12` the Ratio was 0.63. `Cc1cccc(-n2ncc3c(O)nc(-n4nc(C)cc4NC(=O)c4cc5ccccc5o4)nc32)c1` gave a Ratio of 0.6055. Work on `O=C(Nc1ccccc1O)c1ccc(Oc2cccc(C(=O)Nc3ccccc3O)c2)cc1` yielded a Ratio of 0.75. For `Oc1ccccc1CN1CCC2(CCCN(Cc3ccccc3F)C2)C1` (stereo not drawn), the Ratio was 0.9661. `Cl.N=c1n(CCN2CCCCC2)c2ccccc2n1CC(O)c1cccc(Br)c1` (stereo not drawn) showed a Ratio of 0.8955. With `COc1cccc(O)c1CN1CCC2(CCCN(Cc3ccc(F)cc3)C2)C1` (stereo not drawn) the Ratio was 0.8333. Work on `COc1cccc(Nc2nc(NCCO)c3ccccc3n2)c1.Cl` yielded a Ratio of 0.7297. Compound `Cc1ccc(-c2cc(C(=O)Nc3ccc(S(=O)(=O)N4CCCCC4)cc3)[nH]n2)c(O)c1` has a Ratio of 0.875. `COc1ccc(C(=O)Nc2ccc3nc(N4CCCCC4)cc(C)c3c2)cc1OC` showed a Ratio of 0.7897. `COCCNCC(O)Cn1c2ccc(Cl)cc2c2cc(Cl)ccc21` (stereo not drawn) was tested, and the Ratio was 0.88. `COc1ccc(N2CCN(C(CNC(=O)C3CCCCC3)c3ccc4c(c3)OCO4)CC2)cc1` (stereo not drawn) gave a Ratio of 0.9206. For `FC(F)(F)c1ccc(Nc2nnnc3ccccc23)cc1`, the Ratio was 1.052. Compound `O=C(NC1CCN(Cc2ccccc2)CC1)c1cc(-c2ccncc2)nc2ccc(Cl)cc12` has a Ratio of 0.7749. Work on `COc1cc2cc(C(=O)Nc3ccccc3)c(N)nc2cc1OC` yielded a Ratio of 1.031. `COc1cccc(NC(=O)Cn2c(C)c(C#N)c3ccccc32)c1` gave a Ratio of 1.098. `Cn1c(=O)c2cc(C(=O)NCCCN3CCCCCC3)sc2c2ccccc21` showed a Ratio of 1.205. `Cc1[nH]c(-c2ccc(F)cc2)cc1C(=O)NC1CCN(Cc2ccccc2)CC1` gave a Ratio of 0.8906. With `COc1ccc(CCN2CCC(CN(C)Cc3cnn(-c4ccccc4)c3)CC2)cc1` the Ratio was 0.8571. In the case of `O=C(NC(c1ccccc1)c1ccc2cccnc2c1O)c1ccccc1` (stereo not drawn), the Ratio is reported as 1.018. With `O=C(O)C(=O)O.Oc1ccccc1CN1CCN(C(c2ccccc2)c2ccccc2)CC1` the Ratio was 1.068. With `O=C(NC1CCCC1)c1ccc(N2CCC(NCc3cccc(C(F)(F)F)c3)CC2)cc1` the Ratio was 0.8. Compound `CCOc1cc(Br)c(C(C)NC(=O)c2cccc(OC)c2)cc1OCC` (stereo not drawn) has a Ratio of 0.791. For `CC(C)=CCN1CCC(C(=O)Nc2ccc(-c3nc4ccccc4[nH]3)cc2)CC1`, the Ratio was 0.8533. Compound `CCN(CC)CCn1c(=N)n(CC(O)c2ccc(Cl)c(Cl)c2)c2ccccc21.Cl` (stereo not drawn) has a Ratio of 0.9508. With `CCOc1cc(Cl)c(C(C)NC(=O)c2cccc(OC)c2)cc1OCC` (stereo not drawn) the Ratio was 0.9259. With `FC(F)(F)c1cccc(Nc2nc(-c3ccccc3)nc3ncccc23)c1` the Ratio was 0.7857. `CCN1CCN(c2cc(C)c3cc(NC(=O)c4ccc(OC)c(OC)c4)ccc3n2)CC1` gave a Ratio of 0.8308. In the case of `CC(=O)Nc1nnc(SCc2c(C)cc(C(C)(C)C)cc2C)s1`, the Ratio is reported as 0.8169. In the case of `Cc1ccc(Cl)cc1N1CCN(CCCNC(=O)C2CCN(c3nc4ccccc4[nH]3)CC2)CC1`, the Ratio is reported as 0.814. `COc1ccc(CNC2CCN(c3ccc(NC(=O)c4cccc(Cl)c4)cc3)CC2)cc1OC` gave a Ratio of 1.145. `Cc1ccc(CSCc2ccc(C(=O)NC3CC3)o2)cc1` was tested, and the Ratio was 0.8621. In the case of `CC(NCc1ccccc1)c1cc(Cl)ccc1O` (stereo not drawn), the Ratio is reported as 0.6957. Compound `CN1CCN(c2c3c(c(C#N)c4nc5ccccc5n24)CCC3)CC1` has a Ratio of 1.032. In the case of `CCOc1ccc(C2N(C)c3ccccc3N2C)cc1`, the Ratio is reported as 0.8372. Work on `O=C(Nc1ccc(CN2CCOCC2)cc1)c1ccc(-c2ccc(Br)cc2)o1` yielded a Ratio of 0.6519. `CC(=O)NCCc1nc2ccccc2n1Cc1ccc(C(C)C)cc1` was tested, and the Ratio was 1.018. Compound `COc1nc(Nc2ccc(C(C)C)cc2)nc(OC)n1` has a Ratio of 0.9479. `CCN(CC)CCNc1ncnc2c1[nH]c1ccc(Br)cc12` gave a Ratio of 0.9508. `CCOc1cccc(C(=O)Nc2ccc(-c3nc4ccccc4[nH]3)cc2)c1` showed a Ratio of 1.322. With `CN(C)c1ccc(-c2nc3cc(N)ccc3[nH]2)cc1` the Ratio was 1.036. In the case of `Cl.Clc1cc(Br)ccc1-c1ccc(CNCC2CCNCC2)o1`, the Ratio is reported as 1.173. With `Cc1c(C)n(Cc2ccc(F)cc2)c2ccc(C(=O)NCc3ccco3)cc12` the Ratio was 1.212. For `CCN(CC)c1ccc(NC(=O)c2cccs2)cc1`, the Ratio was 1. In the case of `CCCC(c1nnnn1C1CCCCC1)N1CCN(C(=O)c2ccco2)CC1.Cl` (stereo not drawn), the Ratio is reported as 1.023. `CC(C)(C)C(=O)Nc1ccc(C(=O)Nc2cccc(-c3nc4ccccc4[nH]3)c2)cc1` was tested, and the Ratio was 0.7684. Work on `COc1ccc(-c2nonc2NC(=O)c2cccc(C)c2)cc1OC` yielded a Ratio of 1.066. Compound `COc1cccc(-c2nn(C)c3sc(C(=O)NCCN4CCN(c5ccccc5F)CC4)cc23)c1` has a Ratio of 0.7703. Compound `O=C(Nc1ccc(N2CCN(Cc3ccccc3)CC2)cc1)c1cccs1.O=C(O)C(F)(F)F` has a Ratio of 0.8148. `Cc1ccc(CN2CCC(C(=O)Nc3ccc(-c4cc5ccccc5[nH]4)cc3)CC2)o1` showed a Ratio of 0.8636. `O=C(Nc1ccc(N2CCCCC2)c(Cl)c1)c1ccc(Br)o1` showed a Ratio of 0.8784. For `Cc1cc(C)c2nc(N3CCC(C(=O)NCCCN4CCC(N5CCCCC5)CC4)CC3)sc2c1`, the Ratio was 0.8033. Compound `O=C(Nc1ccsc1C(=O)NC1CCCCC1)c1ccc(F)cc1` has a Ratio of 0.9369. In the case of `O=C(Nc1cccc(C(F)(F)F)c1)c1cc(Cl)ccc1O`, the Ratio is reported as 0.9697. Compound `CC(C)(C)c1ccc(C(=O)Nc2nc3ccccc3s2)cc1` has a Ratio of 0.8302. With `CC1CC(C)CN(C(=O)c2ccc(Cl)cc2Cl)C1` (stereo not drawn) the Ratio was 0.6364. In the case of `COc1ccccc1CNC(=O)C1c2ccccc2C(=O)N(CC(C)C)C1c1cccs1` (stereo not drawn), the Ratio is reported as 1.038. `OC(CNC1CCCC1)Cn1c2ccccc2c2ccccc21` (stereo not drawn) showed a Ratio of 1.151. Work on `COc1ccc(C2N(C)c3ccccc3N2C)cc1` yielded a Ratio of 0.8737. Work on `CCN(CC)c1cc(C)c2cc(NC(=O)c3cccc(OC)c3)ccc2n1` yielded a Ratio of 1.095. Work on `CC(C)OCc1cc(CN2CCN(c3cccc(Cl)c3)CC2)c(O)c2ncccc12` yielded a Ratio of 1.015. Compound `O=C(Nc1ccc(F)c(Cl)c1)Nc1ccc(Cl)c(Cl)c1` has a Ratio of 1.268. For `CCOc1ccc(-c2nc(NC(=O)c3cccc(S(C)(=O)=O)c3)sc2C)cc1`, the Ratio was 0.4367. For `Clc1ccc2[nH]c3c(NCCCN4CCOCC4)ncnc3c2c1`, the Ratio was 0.9836. `COc1ccccc1N1CCN(C(CNS(=O)(=O)c2ccc(Cl)cc2)c2cccnc2)CC1` (stereo not drawn) gave a Ratio of 0.8506. In the case of `CCCc1c(C)nc2ccccc2c1O`, the Ratio is reported as 0.9683. `CCOc1c(Cl)cc(CNC(C)C(O)c2ccccc2)cc1OC` (stereo not drawn) showed a Ratio of 1.031. Work on `CCCN(CCC)CCCNC(=O)c1cc2c(-c3ccc(OC)c(OC)c3)nn(C)c2s1` yielded a Ratio of 1.186. `Cc1cc(N2CCN(C3CCCC3)CC2)n2c(nc3ccccc32)c1C#N` was tested, and the Ratio was 0.7364. `CN1c2ccccc2N(C)C1c1ccc2c(c1)OCO2` showed a Ratio of 0.7561. `CCCCOc1ccc(C(=O)Nc2cc(C)on2)cc1` gave a Ratio of 0.9875. In the case of `O=C(NCC1Cc2cccc(-c3ccncc3)c2O1)c1csc2c1CCCC2` (stereo not drawn), the Ratio is reported as 0.6487. With `CCc1ccc(Nc2cc(C)nc3nc(C)nn23)cc1` the Ratio was 0.9802. For `Br.CCN(CC)S(=O)(=O)c1ccc(-c2csc(Nc3ccc(C)c(C)c3)n2)cc1`, the Ratio was 0.8. With `C=C(C)CCC(C)N1CCC(N2CCC(C(=O)NCCc3ccccc3)CC2)CC1` (stereo not drawn) the Ratio was 0.756. Work on `C=CCc1c(C)nc2ccccc2c1O` yielded a Ratio of 0.9595.
